# Values of other authors as cited in patent US20150216918A1, “FERMENTED SOY NUTRITIONAL SUPPLEMENTS INCLUDING MUSHROOM COMPONENTS” (priority 2010, published 2015).
# Tested on: tumor cells
smiles,measurement,value
"CC(C)CCCCCCCCCCCC(=O)O [MDT-13, 13-methyl-tetradecanoic acid]",induction of apoptosis in tumor cells,induce apoptosis
